Assay [1] concerns the target T1, Solute carrier family 22 member 2 (Rattus norvegicus, UniProt Q9R0W2).
T1 sequence (Q9R0W2 whole entry): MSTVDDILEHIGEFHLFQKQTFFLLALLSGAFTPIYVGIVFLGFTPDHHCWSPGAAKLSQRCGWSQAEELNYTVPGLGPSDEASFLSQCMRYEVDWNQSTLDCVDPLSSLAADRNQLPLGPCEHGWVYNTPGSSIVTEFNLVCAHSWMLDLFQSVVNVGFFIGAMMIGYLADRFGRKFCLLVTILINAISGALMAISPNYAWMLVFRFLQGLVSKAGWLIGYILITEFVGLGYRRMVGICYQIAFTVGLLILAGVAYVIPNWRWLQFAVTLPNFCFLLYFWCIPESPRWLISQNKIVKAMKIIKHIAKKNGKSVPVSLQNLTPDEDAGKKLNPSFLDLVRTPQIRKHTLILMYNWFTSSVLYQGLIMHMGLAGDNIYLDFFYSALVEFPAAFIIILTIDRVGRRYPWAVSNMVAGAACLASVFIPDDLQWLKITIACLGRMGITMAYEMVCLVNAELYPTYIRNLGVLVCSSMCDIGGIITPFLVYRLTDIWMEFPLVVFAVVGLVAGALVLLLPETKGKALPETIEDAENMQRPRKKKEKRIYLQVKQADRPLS
The assay is classed as functional, cell-based, MDCK.

The target in assay [2] is T2, Solute carrier family 22 member 1 (Rattus norvegicus, UniProt Q63089).
T2 sequence (Q63089 whole entry): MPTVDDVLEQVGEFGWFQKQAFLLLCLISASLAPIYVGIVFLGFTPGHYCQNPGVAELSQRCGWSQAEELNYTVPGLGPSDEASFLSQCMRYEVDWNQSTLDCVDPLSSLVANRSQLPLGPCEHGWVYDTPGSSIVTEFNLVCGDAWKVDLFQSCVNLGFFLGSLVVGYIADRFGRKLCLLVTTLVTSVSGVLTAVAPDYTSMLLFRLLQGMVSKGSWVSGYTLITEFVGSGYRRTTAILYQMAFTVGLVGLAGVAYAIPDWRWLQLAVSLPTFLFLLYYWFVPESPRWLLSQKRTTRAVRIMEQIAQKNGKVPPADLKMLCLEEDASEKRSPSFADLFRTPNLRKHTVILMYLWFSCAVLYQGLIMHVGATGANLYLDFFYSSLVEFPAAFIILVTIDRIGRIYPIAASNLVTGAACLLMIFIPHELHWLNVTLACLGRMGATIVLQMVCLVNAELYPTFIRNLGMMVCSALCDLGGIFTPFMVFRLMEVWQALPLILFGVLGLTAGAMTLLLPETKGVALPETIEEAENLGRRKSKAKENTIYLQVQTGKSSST
The assay is classed as functional, cell-based, MDCK.

The target of assay [3] is T1, Solute carrier family 22 member 2. As to the kind of experiment: TP_TRANSPORTER: inhibition of TEA uptake in OCT2-expressing MDCK cells. The format is functional, cell-based.
Assay [4] addresses T2, Solute carrier family 22 member 1. As to the kind of experiment: TP_TRANSPORTER: inhibition of TEA uptake in OCT1-expressing MDCK cells. The format is functional, cell-based.

SMILES strings stand for the structures.

By IC50 is commonly meant the concentration that gives 50% inhibition. The term Ki denotes the equilibrium dissociation constant of an inhibitor or competing ligand from its target.

`CCN(CC)CCNC(=O)c1ccc(NC(C)=O)cc1` [ACECAINIDE]: the IC50 in assay [1] was 5 µM; in assay [2] it was 8.8 µM. `N=C(N)NC(=O)c1nc(Cl)c(N)nc1N` [AMILORIDE]: the inhibitory constant (Ki) turned out to be 4.7 µM in assay [3] and 6.9 µM in assay [4]. Take `CN(C)CCC(c1ccc(Cl)cc1)c1ccccn1` (stereo not given) [CHLORPHENIRAMINE]: the IC50 in assay [1] came out at 26 µM; in assay [2], 14 µM. Turning to `C[N+](C)(C)CCO` [CHOLINE], the IC50 in assay [1] and in assay [2] was 1450 µM each time.

As to `CC(C)N(CCC(C(N)=O)(c1ccccc1)c1ccccn1)C(C)C` (stereo not given) [DISOPYRAMIDE], the Ki amounted to 30 µM in assay [3] and 62 µM in assay [4]. Taken in the same sequence, the figures for `NCCc1ccc(O)c(O)c1` [DOPAMINE] were 347 µM and 603 µM. Taken in the same sequence, the figures for `CNC[C@H](O)c1ccc(O)c(O)c1` [EPINEPHRINE] were 1190 µM and 1600 µM. Taken in the same sequence, the figures for `NCCc1c[nH]cn1` [HISTAMINE] were 171 µM and 141 µM. Take `CN(C)CCCN1c2ccccc2CCc2ccccc21` [IMIPRAMINE]: the values for the IC50 in assay [1] and in assay [2] were 9.9 µM and 16 µM, respectively. `CCN(CC)CCNC(=O)c1ccc(N)cc1` [PROCAINAMIDE] showed a Ki in assay [3] of 36 µM.

For `NCCc1c[nH]c2ccc(O)cc12` [SEROTONIN], the Ki amounted to 242 µM in assay [3] and 390 µM in assay [4]. As for `CCCC[N+](CCCC)(CCCC)CCCC` [TETRABUTHYLAMMONIUM], the IC50 in assay [1] was found to be 5.7 µM; in assay [2], 7.9 µM. Compound `C[N+](C)(C)C` [TETRAMETHYLAMMONIUM] had a concentration for half-maximal inhibition (IC50) in assay [1] of 1670 µM. Consider `CCCCC[N+](CCCCC)(CCCCC)CCCCC` [TETRAPENTYLAMMONIUM], for which the IC50 in assay [1] amounted to 1.7 µM; in assay [2], 1.3 µM. The matching figures for `CCC[N+](CCC)(CCC)CCC` [TETRAPROPYLAMMONIUM]: 39 µM and 23 µM. Regarding `Cc1ncc(C[n+]2csc(CCO)c2C)c(N)n1` [THIAMINE ION], the Ki in assay [3] was 646 µM; in assay [4], 736 µM.

Values taken from ChEMBL document CHEMBL2074017, “Distinct characteristics of organic cation transporters, OCT1 and OCT2, in the basolateral membrane of renal tubules” (Pharm Res, 2001).
